Data on 8 compounds can be found in publication PMC9818021, “Targets, Mechanisms and Cytotoxicity of Half-Sandwich Ir(III) Complexes Are Modulated by Structural Modifications on the Benzazole Ancillary Ligand” (Cancers, 2022).

For assay [1], the system named is A2780 (epithelial ovarian carcinoma cells). Kind of assay: MTT cytotoxicity assay. The class given is cell-based, human. The conditions noted are these: A2780, 48 h. The method, then: (§1) Cell culture. Epithelial ovarian carcinoma cells (A2780) that acquired resistance to cisplatin epithelial ovarian carcinoma cells (A2780cis), colon adenocarcinoma cells (SW480) and epithelial lung adenocarcinoma cells (A549) were provided by Sigma Aldrich. A549 and SW480 cells were grown in Dulbecco′s Modified Eagle′s Medium (DMEM), supplemented with 10% Fetal Bovine Serum (FBS) and 1% penicillin, streptomycin and 1% glutamine for A549 and 1% amphotericin B for SW480. The A2780 and A2780cis were grown in RPMI 1640 supplemented with 10% Fetal Bovine Serum (FBS), 1% glutamine and 1% penicillin, streptomycin and amphotericin B. All cells were incubated in a humidified incubator at 37 °C under a 5% CO2 atmosphere and grown in 100 mm culture dishes to approximately 70–80% confluence. For subculturing, cells were detached with Trypsin-EDTA (Sigma). A549-gal were derived from A549 cultured in glucose-free medium supplemented with 10 mM galactose (Sigma) for at least 10 passes.
(§2) Cytotoxicity. MTT Assay and IC50 estimation. The cytotoxicity of 1[C,NH-Cl], 2[C,NMe-Cl], 3[N,NH-Cl]Cl, 4[N,NMe-Cl]Cl, 5[CNH2,NH-Cl]Cl, 6[CNH2,S-Cl]Cl, 7[CO,NH-Cl] and 8[CO,S-Cl] in A2780, A2780cis, SW480 and A549 carcinoma cells was evaluated by the MTT colorimetric assay. Cells were seeded in 96-well plates at 5000 cells per well and incubated at 37 °C, 5% CO2. After 24 h, the medium was removed and replaced with fresh medium with different concentrations of the compounds under study, and they were incubated for 48 h. Final DMSO concentration was kept below 0.7% in wells. For a negative control, one sequence of cells was left untreated and for vehicle control, cells treated with DMSO were included. For cell viability experiments preincubating with NAC (N-Acetyl-L-Cysteine), the cells were pre-treated with NAC, 10 mM for 2 h before the incubation with complex 1[C,NH-Cl] for 24 h. Then, the medium was removed from the wells, and 100 µL MTT (5 mg/mL) was added. After an incubation time of 4 h, 100 μL of solubilizing detergent solution (SDS, 10% in HCL 0.01 M) was added and kept in the incubator overnight. Cell growth inhibition was detected by measuring the absorbance of each well at 595 nm using a BioTek Cytation5 microplate reader. Each test was repeated in quadruplicate in three independent experiments for each cell line. The percentage of survival cells was calculated using absorbance measurements compared with control and the IC50 estimation using Graph Pad Prism version 6.01.

Assay [2] deals with A2780cis (ovarian, acquired resistance to cisplatin). Nature of the assay: MTT cytotoxicity assay. The class given is cell-based, human. The conditions noted are these: 48 h; for IC50: A2780cis. Here is the method:
as §1, §2

Assay [3] concerns A549 (epithelial lung adenocarcinoma cells). Nature of the assay: MTT cytotoxicity assay. Conditions: A549, 48 h. The class given is cell-based, human. Here is the method:
as §1, §2

For assay [4], the system named is SW480 (colon adenocarcinoma cells). Kind of assay: MTT cytotoxicity assay. The class given is cell-based, human. The conditions noted are these: SW480, 48 h. Here is the method:
as §1, §2

Assay [5] concerns Calf thymus DNA. Nature of the assay: DNA viscosity measurements. The class given is binding. Conditions: as a function of CD/CP, overnight incubation. Here is the method:
Viscosity measurements were performed using a Micro-Ubbelohde viscometer whose temperature was controlled externally (25 ± 0.1 °C). The flow time was measured with a digital stopwatch. Mean values of triplicated measurements were taken to evaluate the DNA viscosity in the absence (η0) and in the presence, (η) of iridium complexes. The viscosity readings were expressed as L/L0 = (η/η0)^1/3 versus the CD/CP ratio. The data was analysed using […] where t0 and tDNA are the buffer and polynucleotide solution flow times, respectively, whereas t is the flow time of the Ir-complex/DNA mixture after the stabilization period.

The test system of assay [6] is plasmid DNA (pUC18). Kind of assay: Agarose gel electrophoresis of plasmid DNA. The class given is binding, Escherichia coli. The conditions noted are these: pUC18 20 µM, overnight 37 °C. The method, then:
Agarose Gel electrophoresis of plasmid DNA Overnight cultures of the strain DH5α of Escherichia coli were isolated with the Quiagen DNA purification kit. Then, 20 µM (in base pairs) of plasmid DNA (pUC18) was incubated with different concentrations of the synthesized iridium complexes overnight at 37 °C. Afterwards, 2 μL of loading buffer were added to 10 μL of the incubated samples and loaded onto a 1% agarose gel. Electrophoresis was run in TAE 1× at 6.5 V/cm during 2.5 h. Then, the agarose gel was stained with ethidium bromide 1 μg/mL and visualized with a Gel Doc XR+ Imaging System (Bio-Rad, Hercules, CA, USA).

Assay [7] has as its system ROS (superoxide anion, hydrogen peroxide). Nature of the assay: ROS generation (DHE and H2DCFDA, flow cytometry). The class given is cell-based. The conditions noted are these: after 3 h. Here is the method: Specific assays with 1[C,NH] complex were performed according to manufacturer’s instructions using the following reagents from Molecular Probes (Thermo Fisher Scientific): Measurements of ROS: Dihydroethidium (DHE, D11347) and 2′, 7′-dichlorodihydrofluorescein diacetate (H2DCFDA, D399); detection of caspases 3/7: CellEvent Caspase-3/7 Green Detection Reagent (C10423); Cell viability: Live/Dead Cell Imaging Kit (R37601); Analysis of cytosolic calcium concentration: Fluo3/AM (F23915); Analysis of MMP: Tetramethylrhodamine methyl ester perchlorate (TMRM, T668). RT-qPCR’s assays were performed with the following primers/probes from Thermo Fisher Scientific: DCP1A (Hs00218198-m1), FOSB (Hs00171851-m1), EGR1(Hs0015928-m1), ATF3 (Hs00231069-m1), DDIT3 (Hs00358796-g1), PP1R15A (Hs00169585-m1), CHAC1(Hs00225520-m1), MIR9-1 (Hs04231512-s1), ATP1B2 (Hs00155922-m1), BBC3 (Hs00248075-m1), BCL2L11 (Hs00798019-s1), PMAIP1 (Hs00560402-m1), SKP2 (Hs01021864-m1) and HIST1H1B (Hs00271207-s1). RT-qPCR experiments were performed as described.

Regarding `Cc1c(C)c(C)[c-](C)c1C.[Cl-].[Cl][Ir]1[NH2+]c2ccccc2-c2[nH]c3ccccc3[n+]21` [5[CNH2,NH], [(η^5-Cp*)IrCl(κ^2-N,N-apbim)]Cl], the IC50 in assay [1] is 17 ± 1 µM; in assay [2], 30 ± 1 µM; in assay [3] it was greater than 100 µM; in assay [4] it was 34 ± 1 µM.

Take `Cc1c(C)c(C)[c-](C)c1C.Cn1c2[n+](c3ccccc31)[Ir]([Cl])[n+]1ccccc1-2.[Cl-]` [4[N,NMe], [(η^5-Cp*)IrCl(κ^2-N,N-pyMebim)]Cl]: the 50% inhibitory concentration (IC50) in assay [1], in assay [2], in assay [3] and in assay [4] was greater than 100 µM each time.

Turning to `Cc1c(C)c(C)[c-](C)c1C.[Cl-].[Cl][Ir]1[NH2+]c2ccccc2-c2sc3ccccc3[n+]21` [6[CNH2,S], [(η^5-Cp*)IrCl(κ^2-N,N-apbtz)]Cl], the IC50 in assay [1] was greater than 100 µM; in assay [2], 48 ± 2 µM; in assay [3] it was greater than 100 µM; in assay [4], 40 ± 1 µM.

For the compound `Cc1c(C)c(C)[c-](C)c1C.[Cl-].[Cl][Ir]1[n+]2ccccc2-c2[nH]c3ccccc3[n+]21` [3[N,NH], [(η^5-Cp*)IrCl(κ^2-N,N-pybim)]Cl], the IC50 was 84 ± 1 µM in assay [1], 48 ± 1 µM in assay [2], greater than 100 µM in assay [3] and 90 ± 1 µM in assay [4]. The “Relative viscosity of DNA (L/L0)” value in assay [5] was “drastically declined”.

With `Cc1c(C)c(C)[c-](C)c1C.[Cl][Ir]1[O]c2ccccc2-c2[nH]c3ccccc3[n+]21` [7[CO,NH], [(η^5-Cp*)IrCl(κ^2-O,N-hpbim)]], the IC50 in assay [1] is 14 ± 1 µM; in assay [2] it was 42 ± 1 µM; in assay [3], 43 ± 3 µM; in assay [4], greater than 100 µM. Moreover, in assay [2], the “Resistance Factor (RF) IC50,A2780CIS/IC50,A2780” value (from here on “Resistance Factor”) was greater than 2.

Take `Cc1c(C)c(C)[c-](C)c1C.Cn1c2[n+](c3ccccc31)[Ir]([Cl])[c]1ccccc1-2` [2[C,NMe], [(η^5-Cp*)IrCl(κ^2-N,C-NMepbim)]]: the values for the IC50 in assay [1], in assay [2] and in assay [3] were 9 ± 1 µM, 13 ± 1 µM and 10 ± 1 µM, respectively. The “Resistance Factor” value in assay [2] was “no cross-resistance”. Also, in assay [5], the “Relative viscosity of DNA (L/L0)” value is “No variations”. For the same compound, the “Migration pattern of plasmid DNA” value in assay [6] is listed as “unable to interact with DNA”. The “DHE fluorescence (superoxide anion levels)” value (shortened to “DHE fluorescence”) in assay [7] is listed as “increased”.

As to `Cc1c(C)c(C)[c-](C)c1C.[Cl][Ir]1[c]2ccccc2-c2[nH]c3ccccc3[n+]21` [1[C,NH], [(η^5-Cp*)IrCl(κ^2-N,C-pbim)]], the IC50 in assay [1] amounted to 5 ± 2 µM; in assay [2] it was 5 ± 1 µM; in assay [3], 10 ± 1 µM; in assay [4], 5 ± 2 µM. Also, in assay [2], the “Resistance Factor” value is “no cross-resistance”. The “Relative viscosity of DNA (L/L0)” value in assay [5] is given as “No variations”. Moreover, the “Migration pattern of plasmid DNA” value in assay [6] is reported as “unable to interact with DNA”. The “DHE fluorescence” value in assay [7] is “increased”.

As for `Cc1c(C)c(C)[c-](C)c1C.[Cl][Ir]1[O]c2ccccc2-c2sc3ccccc3[n+]21` [8[CO,S], [(η^5-Cp*)IrCl(κ^2-O,N-hpbtz)]], the IC50 in assay [1] was 2 ± 1 µM; in assay [2] it was 6 ± 2 µM; in assay [3], 41 ± 5 µM; in assay [4], 34 ± 1 µM. For the same compound, the “Resistance Factor” value in assay [2] is recorded as greater than 2. Further, the “DHE fluorescence” value in assay [7] is reported as “increased”.
